According to ChEMBL document CHEMBL5316284, “Structural Determinants of Indole-2-carboxamides: Identification of Lead Acetamides with Pan Antimycobacterial Activity” (J Med Chem, 2023):
In brackets after ≈: the same amount, converted by molar mass.

Tests used:
[1] = system: Mycobacterium tuberculosis; test: Antimycobacterial activity against Mycobacterium tuberculosis H37Rv mc2 6206 assessed as inhibition of bacterial growth measured after 7 days by visual analysis; assay type: functional; settings: H37Rv mc2 6206, 168 h, time 7 day
[2] = system: Mycobacteroides abscessus; test: Antimycobacterial activity against Mycobacterium abscessus […] assessed as inhibition of bacterial growth measured after 5 days by visual analysis; assay type: functional; settings: 120 h, time 5 day
[3] = system: Mycobacteroides abscessus; test: Antimycobacterial activity against Mycobacterium abscessus ATCC 19977 harbouring mmpL3 A309P mutant gene assessed as inhibition of bacterial growth by visual analysis; assay type: functional
[4] = system: Mycobacteroides abscessus; test: Antimycobacterial activity against Mycobacterium abscessus ATCC 19977 harbouring mmpL3 L551S mutant gene assessed as inhibition of bacterial growth by visual analysis; assay type: functional
[5] = system: Mycobacteroides abscessus; test: Antimycobacterial activity against Mycobacterium Mycobacterium abscessus ATCC 19977 harbouring mmpL3 I306S mutant gene assessed as inhibition of bacterial growth by visual analysis; assay type: functional
[6] = Selectivity index, ratio of IC50 for Cytotoxicity against human WI26VA4 cells to MIC for antimycobacterial activity against Mycobacterium tuberculosis H37Rv mc2 6206; assay type: toxicity, cell-based; settings: read-out: Selectivity Index
[7] = Plasma protein binding in human at 10 ug/ml incubated for 4 hrs under shaking condition by LC/MS/MS analysis; assay type: ADME, cell-free; settings: at 10 µg/mL, read-out: PPB (converted)
[8] = Kinetic solubility of compound at pH 7.4 incubated for 6 hrs by LC-MS/MS analysis; assay type: physicochemical; settings: buffer, read-out: Kinetic_solubility
[9] = Permeability of the compound by PAMPA method; assay type: ADME
[10] = Metabolic stability in human liver S9 fraction assessed as parent compound remaining at 5 ug/ml after 90 mins in presence of NADPH by LC/MS analysis; assay type: ADME, subcellular; settings: s9, 1.5 h, dose 5 µg/ml
[11] = Selectivity index, ratio of IC50 for Cytotoxicity against human WI26VA4 cells to MIC for antimycobacterial activity against Mycobacterium abscessus […]; assay type: toxicity, cell-based; settings: read-out: Selectivity Index
[12] = Metabolic stability in mouse liver S9 fraction assessed as parent compound remaining at 5 ug/ml after 90 mins in presence of NADPH by LC/MS analysis; assay type: ADME, subcellular; settings: s9, 1.5 h, dose 5 µg/ml
[13] = Cytotoxicity against human WI26VA4 cells assessed as inhibition of cell growth measured after 72 hrs by MTT assay; assay type: toxicity, cell-based
Mycobacterium kansasii = test: Antimycobacterial activity against Mycobacterium kansasii ATCC 1279 assessed as inhibition of bacterial growth by visual analysis; assay type: functional
[14] = system: Mycobacterium intracellulare; test: Antimycobacterial activity against Mycobacterium intracellulare 1956 assessed as inhibition of bacterial growth by visual analysis; assay type: functional
[15] = Antimycobacterial activity against Mycobacterium avium subsp. avium 2585R assessed as inhibition of bacterial growth by visual analysis; assay type: functional
Mycobacteroides chelonae = test: Antimycobacterial activity against Mycobacteroides chelonae ATCC 35752 assessed as inhibition of bacterial growth by visual analysis; assay type: functional
[16] = system: Mycolicibacterium fortuitum; test: Antimycobacterial activity against Mycobacterium fortuitum ATCC 6841 assessed as inhibition of bacterial growth by visual analysis; assay type: functional
[17] = system: Mycobacterium intracellulare subsp. chimaera; test: Antimycobacterial activity against Mycobacterium intracellulare subsp. chimaera 1501948 assessed as inhibition of bacterial growth by visual analysis; assay type: functional

Q: Which MIC [1] does the source give for `Cc1ccc(NCC(=O)NC2C3CC4CC(C3)CC2C4)cc1` (stereo not drawn) here?
A: 4 µg/mL (≈ 13.4 µM)

Q: And the MIC [2]?
A: 16 µg/mL (≈ 53.6 µM)

Q: What does the source list for `C[C@H]1CC[C@H](NC(=O)CNc2ccccc2)CC1`?
A: MIC [1]: 64 µg/mL (≈ 260 µM); MIC [2]: > 64 µg/mL

Q: What does the source list for `COc1ccc(NCC(=O)N[C@@H]2C[C@@H]3C[C@H]([C@H]2C)C3(C)C)cc1`?
A: MIC [1]: 64 µg/mL (≈ 202 µM); MIC [2]: 32 µg/mL (≈ 101 µM)

Q: Which MIC [1] does the source give for `C[C@@H]1[C@H]2C[C@@H](C[C@H]1NC(=O)CNc1ccccc1)C2(C)C` here?
A: 64 µg/mL (≈ 223 µM)

Q: And the MIC [2]?
A: > 64 µg/mL

Q: For `Cc1ccc(NCC(=O)NC23CC4CC(CC(C4)C2)C3)cc1`, which MIC [1] is on record?
A: 32 µg/mL (≈ 107 µM)

Q: And the MIC [2]?
A: 32 µg/mL (≈ 107 µM)

Q: For `CC[C@H]1OC(=O)[C@H](C)[C@@H](O[C@H]2C[C@@](C)(OC)[C@@H](O)[C@H](C)O2)[C@H](C)[C@@H](O[C@@H]2O[C@H](C)C[C@H](N(C)C)[C@H]2O)[C@](C)(OC)C[C@@H](C)C(=O)[C@H](C)[C@@H](O)[C@]1(C)O` [CLARITHROMYCIN], which MIC [3] is on record?
A: 4 µg/mL (≈ 5.35 µM)

Q: And the MIC [4]?
A: 8 µg/mL (≈ 10.7 µM)

Q: And the MIC [5]?
A: 4 µg/mL (≈ 5.35 µM)

Q: Which MIC [1] does the source give for `C[C@@H]1[C@H]2C[C@@H](C[C@H]1NC(=O)CNc1ccc(C(F)(F)F)cc1)C2(C)C` here?
A: 16 µg/mL (≈ 45.1 µM)

Q: And the MIC [2]?
A: 32 µg/mL (≈ 90.3 µM)

Q: Which MIC [1] does the source give for `O=C(CNc1ccc(Br)cc1)NC1C2CC3CC(C2)CC1C3` (stereo not drawn) here?
A: 4 µg/mL (≈ 11 µM)

Q: And the MIC [2]?
A: 4 µg/mL (≈ 11 µM)

Q: What does the source list for `O=C(CNc1ccc(C(F)(F)F)cc1)NC1C2CC3CC(C2)CC1C3` (stereo not drawn)?
A: selectivity ratio [6]: > 10; fraction unbound at 4 h, 10 ug/ml [7]: 0.057; solubility kinetic at 6 h [8]: 23.9 µg/mL (≈ 67.8 µM); permeability [9]: 0.34 10^-6 cm/s; t1/2 [10]: 5.8 h; MIC [1]: 2 µg/mL (≈ 5.68 µM); selectivity ratio [11]: > 5; t1/2 [12]: 15.6 h; IC50 [13]: > 20 µg/mL; MIC [2]: 4 µg/mL (≈ 11.4 µM)

Q: With `Cc1ccc(NCC(=O)N[C@H]2CC[C@H](C)CC2)cc1` as the compound, how does the MIC [1] read?
A: 64 µg/mL (≈ 246 µM)

Q: And the MIC [2]?
A: > 64 µg/mL

Q: What does the source list for `O=C(CNc1ccc(OC(F)(F)F)cc1)NC12CC3CC(CC(C3)C1)C2`?
A: selectivity ratio [6]: > 1.2; fraction unbound at 4 h, 10 ug/ml [7]: 0.002; solubility kinetic at 6 h [8]: 6.79 µg/mL (≈ 18.4 µM); permeability [9]: 0.47 10^-6 cm/s; t1/2 [10]: 3.1 h; MIC [1]: 16 µg/mL (≈ 43.4 µM); selectivity ratio [11]: > 10; t1/2 [12]: 4.1 h; IC50 [13]: > 20 µg/mL; MIC [2]: 2 µg/mL (≈ 5.43 µM)

Q: Which selectivity ratio [6] does the source give for `O=C(CNc1cccc(Br)c1)NC12CC3CC(CC(C3)C1)C2` here?
A: > 20

Q: And the fraction unbound at 4 h, 10 ug/ml [7]?
A: 0.068

Q: What about the solubility kinetic at 6 h [8] of the same compound?
A: 22.2 µg/mL (≈ 61.1 µM)

Q: And the permeability [9]?
A: 1.02 10^-6 cm/s

Q: And the t1/2 [10]?
A: 0.5 h

Q: And the MIC [1]?
A: 32 µg/mL (≈ 88.1 µM)

Q: And the selectivity ratio [11]?
A: > 20

Q: What about the IC50 [13] of the same compound?
A: > 20 µg/mL

Q: And the MIC [2]?
A: 1 µg/mL (≈ 2.75 µM)

Q: Which results are given for `C[C@@H]1[C@H]2C[C@@H](C[C@H]1NC(=O)CNc1cccc(Br)c1)C2(C)C`?
A: selectivity ratio [6]: > 40; fraction unbound at 4 h, 10 ug/ml [7]: 0.045; solubility kinetic at 6 h [8]: 18.6 µg/mL (≈ 50.9 µM); permeability [9]: 1.01 10^-6 cm/s; MIC (Mycobacterium kansasii): 8 µg/mL (≈ 21.9 µM); t1/2 [10]: 4.2 h; MIC [1]: 0.5 µg/mL (≈ 1.37 µM); MIC [14]: 8 µg/mL (≈ 21.9 µM); selectivity ratio [11]: > 20; t1/2 [12]: 5.8 h; MIC [15]: 16 µg/mL (≈ 43.8 µM); MIC (Mycobacteroides chelonae): 8 µg/mL (≈ 21.9 µM); MIC [16]: 2 µg/mL (≈ 5.47 µM); IC50 [13]: > 20 µg/mL; MIC [2]: 1 µg/mL (≈ 2.74 µM); MIC [17]: 16 µg/mL (≈ 43.8 µM)

Q: What does the source list for `COc1ccc(NCC(=O)NC23CC4CC(CC(C4)C2)C3)cc1`?
A: MIC [1]: 32 µg/mL (≈ 102 µM); MIC [2]: 32 µg/mL (≈ 102 µM)

Q: Which MIC [1] does the source give for `O=C(CNc1ccccc1)NC1CCCCCC1` here?
A: 64 µg/mL (≈ 260 µM)

Q: And the MIC [2]?
A: > 64 µg/mL

Q: Which selectivity ratio [6] does the source give for `O=C(CNc1ccc(OC(F)(F)F)cc1)NC1C2CC3CC(C2)CC1C3` (stereo not drawn) here?
A: > 5

Q: What about the fraction unbound at 4 h, 10 ug/ml [7] of the same compound?
A: 0.033

Q: And the solubility kinetic at 6 h [8]?
A: 20.3 µg/mL (≈ 55.1 µM)

Q: What about the permeability [9] of the same compound?
A: 3.12 10^-6 cm/s

Q: What about the t1/2 [10] of the same compound?
A: 5.9 h

Q: And the MIC [1]?
A: 4 µg/mL (≈ 10.9 µM)

Q: And the selectivity ratio [11]?
A: > 10

Q: What about the t1/2 [12] of the same compound?
A: 3.7 h

Q: What about the IC50 [13] of the same compound?
A: > 20 µg/mL

Q: And the MIC [2]?
A: 2 µg/mL (≈ 5.43 µM)

Q: Which MIC [1] does the source give for `O=C(CNc1ccc(OC(F)(F)F)cc1)NC1CCCCCCC1` here?
A: 32 µg/mL (≈ 92.9 µM)

Q: What about the MIC [2] of the same compound?
A: 8 µg/mL (≈ 23.2 µM)

Q: Which results are given for `O=C(CNc1ccc(Cl)cc1)NC1C2CC3CC(C2)CC1C3` (stereo not drawn)?
A: MIC [1]: 64 µg/mL (≈ 201 µM); MIC [2]: > 64 µg/mL

Q: For `O=C(CNc1ccccc1Cl)NC12CC3CC(CC(C3)C1)C2`, which MIC [1] is on record?
A: 8 µg/mL (≈ 25.1 µM)

Q: And the MIC [2]?
A: 16 µg/mL (≈ 50.2 µM)

Q: Which MIC [1] does the source give for `Cc1ccc(NCC(=O)N[C@@H]2C[C@@H]3C[C@H]([C@H]2C)C3(C)C)cc1` here?
A: 16 µg/mL (≈ 53.3 µM)

Q: What about the MIC [2] of the same compound?
A: 8 µg/mL (≈ 26.6 µM)

Q: For `O=C(CNc1ccc(C(F)(F)F)cc1)NC12CC3CC(CC(C3)C1)C2`, which MIC [1] is on record?
A: 8 µg/mL (≈ 22.7 µM)

Q: And the MIC [2]?
A: 8 µg/mL (≈ 22.7 µM)
